Measurements as given in patent US5693628A, “11-benzaldoxime-estra-diene derivatives, methods for their production and pharmaceuticals containing these compounds” (priority 1994, dated 1997).

What was measured:
[1] = system: early gravidity in the rat; experiment: Early abortive effect / inhibition of early gravidity in the rat; format: in vivo; conditions: for complete gravidity inhibition % / complete gravidity inhibition N*/N (females not pregnant/inseminated females): empty uteri
Protocol: Inhibition of early gravidity in the rat
Female rats are mated in the pro-oestrus. If semen is found in the vaginal smear on the next day, this day is counted as day 1 (=d1) of the gravidity. Treatment with the test substance or vehicle is applied on d5-d7, autopsy is carried out on d9. The substances are injected subcutaneously in 0.2 ml of vehicle (benzyl benzoate/castor oil 1+4).

[2] = system: ZR75/AGP-763 human mammary cell line (CAT induction); experiment: Antiglucocorticoid effect: inhibition of dexamethasone-induced CAT in ZR75/AGP-763 cells; format: cell-based; conditions: ZR 75/AGP-763; 10^-7 M dexamethasone; wide range of concentrations
Excerpt: FIG. 2. is a graph showing the antiglucocorticoid effect of J 867 (Example 1) in comparison to RU 486. The graph depicts the inhibition of CAT induction in a human mammary cell line (the ZR75/AGP-763 cell line) which were induced by 10^-7 M dexamethasone. The graph indicates the log molar antagonist concentration in the x-axis versus the maximum CAT induction as a percentage in the y-axis. The results for dexamethasone is shown as dashed lines (- - -), the IC50 is shown in solid line (----), RU 486 is shown as open boxes (.quadrature.), and J 867 is shown with closed boxes (.box-solid.).
FIG. 2 depicts the antiglucocorticoid effect produced by J 867 in the ZR 75/AGP-763 line of human mammary cells compared with that of RU 486.
In this cell line, dexamthasone induces the chloroamphenicol acetyl transferase gene (CAT). This induction is inhibited by antiglucocorticoid substances.
Antiglucocorticoid effect of J867 in the ZR75/AGP-763 line of human mammary cells
The cell culture experiments were carried out in RPMI 1640 added with 10% foetal calf serum (FCS) using an incubator cabinet containing 95% air and 5% CO2 at 37° C. The cells were spread in 60 mm Petri dishes. […] CAT was determined using a Boehringer ELISA according to the instructions for quantitative CAT determination of transfected cells.

[3] = biological target: T1, progesterone receptor (Oryctolagus cuniculus, UniProt P06186); experiment: relative molar bonding affinity to progesterone receptor (competitive bonding); format: binding; conditions: progesterone = 100%; uterine cytosol of estradiol-primed rabbit; 3H-ORG 2058, 5 nM; 18 h, 0-4° C.
T1 construct: uterine cytosol of the estradiol-primed rabbit; from tissue; host or cells: uterus (cytosol) of estradiol-primed rabbit
T1 sequence (P06186 1-930): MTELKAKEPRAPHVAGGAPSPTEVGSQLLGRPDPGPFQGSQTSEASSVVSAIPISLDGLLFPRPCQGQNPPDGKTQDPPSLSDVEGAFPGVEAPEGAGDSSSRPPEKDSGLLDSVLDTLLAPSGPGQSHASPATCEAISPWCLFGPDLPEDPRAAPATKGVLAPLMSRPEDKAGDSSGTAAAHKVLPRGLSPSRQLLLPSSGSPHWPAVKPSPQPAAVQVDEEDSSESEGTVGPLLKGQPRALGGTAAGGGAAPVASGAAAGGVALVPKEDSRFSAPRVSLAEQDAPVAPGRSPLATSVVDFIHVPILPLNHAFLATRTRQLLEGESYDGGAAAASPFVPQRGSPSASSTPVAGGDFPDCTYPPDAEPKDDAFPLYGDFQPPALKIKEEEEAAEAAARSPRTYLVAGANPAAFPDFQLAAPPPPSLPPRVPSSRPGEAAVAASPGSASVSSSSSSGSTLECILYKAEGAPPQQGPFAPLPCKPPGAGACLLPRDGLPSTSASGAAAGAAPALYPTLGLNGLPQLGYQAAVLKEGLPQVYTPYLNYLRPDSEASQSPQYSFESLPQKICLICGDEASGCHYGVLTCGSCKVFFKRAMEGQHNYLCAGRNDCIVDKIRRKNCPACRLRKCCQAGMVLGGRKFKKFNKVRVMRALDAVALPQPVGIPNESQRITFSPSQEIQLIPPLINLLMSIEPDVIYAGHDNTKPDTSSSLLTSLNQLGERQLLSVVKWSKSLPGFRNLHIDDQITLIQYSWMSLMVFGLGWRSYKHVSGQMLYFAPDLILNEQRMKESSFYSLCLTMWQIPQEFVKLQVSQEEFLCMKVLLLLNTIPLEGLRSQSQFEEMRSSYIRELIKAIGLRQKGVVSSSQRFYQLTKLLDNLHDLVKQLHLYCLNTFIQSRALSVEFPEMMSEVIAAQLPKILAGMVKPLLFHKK
Protocol: Measurement of bonding affinity for receptors
Receptor bonding affinity was determined by competitive bonding of a specifically binding ^3 H labelled hormone (tracer) and the compound to be tested to receptors in the cytosol from animal target organs. It was tried to obtain receptor saturation and a balanced reaction. The following incubation conditions were selected:
Progesterone receptor: uterine cytosol of the estradiol-primed rabbit, kept at -30° C. in TED buffer (20 mM Tris/HCl, pH 7.4; 1 mM ethylene diamine tetraacetate, 2 mM dithio threitol) with 250 mM of saccharose.
After an incubation period of 18 hours at 0°-4° C., bonded and free steroid was separated by mixing in active carbon/dextrane (1%/0.1%), centrifuging off and measuring the bonded ^3 H activity in the supernatant.
The IC50 for the compound to be tested and for the reference substance were determined from measurements in series of concentrations.

[4] = 0.3 mg/animal/day s.c., 5th to 7th day of pregnancy
[5] = 1.0 mg/animal/day s.c., 5th to 7th day of pregnancy
[6] = 3.0 mg/animal/day s.c., 5th to 7th day of pregnancy

relative molar bonding affinity (RBA) to progesterone receptor [3]: 302%
Compound: COC[C@]1(OC)CC[C@H]2[C@@H]3CCC4=CC(=O)CCC4=C3[C@@H](c3ccc(C=NO)cc3)C[C@@]21C [Example 1, 11β-[4-(hydroximinomethyl)phenyl]-17β-methoxy-17α-methoxymethyl-estra-4,9-diene-3-on]
complete gravidity inhibition % [1, 4]: 0%
complete gravidity inhibition N*/N (females not pregnant/inseminated females) [1, 4]: 0/5
complete gravidity inhibition % [1, 5]: 100%
complete gravidity inhibition N*/N (females not pregnant/inseminated females) [1, 5]: 5/5
complete gravidity inhibition % [1, 6]: 100%
complete gravidity inhibition N*/N (females not pregnant/inseminated females) [1, 6]: 5/5
ED 50 ([1]; s.c., 5th to 7th day of pregnancy, graphic determination): 0.6 mg/animal/day
inhibition capability of nidation as compared to RU 486 (factor) ([1]; s.c., d5-d7, autopsy d9, factor compared to RU 486): 3
inhibition of CAT compared with RU 486 [2]: inhibits CAT over a wide range of concentrations to a lesser extent than RU 486
